Legend:
[1] = target: T1, Dipeptidyl peptidase 9 (DPP9) (Homo sapiens, UniProt Q86TI2); experiment: Serine protease inhibition: DPP9; type: biochemical, mammalian; settings: Table 8B; read-out: IC50 DPP9
T1 construct: purchased BPS Bioscience 80090
Protocol: (§1) The effect of selected BLIs on the enzymatic activity of some common mammalian serine proteases was evaluated.
(§2) 50 μl of the diluted enzyme was mixed with 50 μl of inhibitor at various concentrations and 50 μl of corresponding buffer (Table 7). Reaction mixtures were incubated for 10 min at 37° C. Subsequently, 50 μl of corresponding substrate (Table 7) was added and absorbance or fluorescence was monitored for 30 min on SpectraMax M2 plate reader (Molecular Devices). 4-(2-Aminoethyl)benzenesulfonyl fluoride hydrochloride (AEBSF) and leupeptin were used as positive controls. Rates of reaction were calculated and presented relative to “no treatment” control.

ec302 (TEM-10) [2] = experiment: Potentiation of aztreonam, strain ec302; type: cell-based
Elastase = target: T2, Elastase (Sus scrofa, UniProt P00772); experiment: Serine protease inhibition: elastase; type: biochemical, mammalian; settings: Table 8A, class symbols; read-out: IC50 Elastase
T2 construct: purchased Calbiochem 324682
T2 sequence (P00772 27-266): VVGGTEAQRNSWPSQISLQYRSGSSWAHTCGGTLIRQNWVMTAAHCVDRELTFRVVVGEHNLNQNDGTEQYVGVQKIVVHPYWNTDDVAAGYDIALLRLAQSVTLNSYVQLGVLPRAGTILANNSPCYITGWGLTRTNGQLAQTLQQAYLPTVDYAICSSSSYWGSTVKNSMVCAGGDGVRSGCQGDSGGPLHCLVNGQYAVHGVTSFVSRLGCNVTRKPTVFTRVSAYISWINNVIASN
Protocol: as §1, §2

CathepsinG = target: T3, CathepsinG (Homo sapiens, UniProt P08311); experiment: Serine protease inhibition: cathepsin G; type: biochemical, mammalian; settings: Table 8B
T3 construct: purchased EMD Millipore 219373
T3 sequence (P08311 21-244): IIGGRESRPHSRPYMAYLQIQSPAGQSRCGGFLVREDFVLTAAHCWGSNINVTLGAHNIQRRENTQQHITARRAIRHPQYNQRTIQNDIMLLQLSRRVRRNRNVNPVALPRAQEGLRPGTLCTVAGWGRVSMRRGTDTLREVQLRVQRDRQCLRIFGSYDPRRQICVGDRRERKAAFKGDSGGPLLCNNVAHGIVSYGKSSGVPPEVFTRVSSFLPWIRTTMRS
Protocol: as §1, §2

KP1009 (CTX-M-15) = experiment: Potentiation of aztreonam, strain KP1009; type: cell-based
P99 = P99 (Enterobacter cloacae, UniProt P05364); experiment: Inhibition of nitrocefin cleavage by purified P99; type: biochemical; settings: nitrocefin reporter substrate, purified enzyme; read-out: Ki (P99, NCF)
Chain of P99 (P05364 21-381): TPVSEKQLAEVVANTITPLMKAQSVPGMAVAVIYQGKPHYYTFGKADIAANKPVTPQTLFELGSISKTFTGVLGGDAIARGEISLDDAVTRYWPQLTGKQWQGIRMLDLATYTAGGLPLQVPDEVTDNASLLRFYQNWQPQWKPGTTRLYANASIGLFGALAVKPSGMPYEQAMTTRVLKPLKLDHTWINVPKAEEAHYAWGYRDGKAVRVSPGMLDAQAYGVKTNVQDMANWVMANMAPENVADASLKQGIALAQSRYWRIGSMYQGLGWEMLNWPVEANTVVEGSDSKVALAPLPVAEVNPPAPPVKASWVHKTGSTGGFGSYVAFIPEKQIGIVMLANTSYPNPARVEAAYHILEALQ
Protocol: (§3) Purified enzymes were mixed with various concentrations of inhibitors in reaction buffer and incubated for 10 min at room temperature. Nitrocefin was added and substrate cleavage profiles were recorded at 490 nm every 10 sec for 10 min.

Thrombin = target: T4, Thrombin (Homo sapiens, UniProt P00734); experiment: Serine protease inhibition: thrombin; type: biochemical, mammalian; settings: Table 8A, class symbols; read-out: IC50 Thrombin
T4 construct: Thrombin; MPBio; 19491880; purchased MPBio 19491880
How it was run: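 Each enzyme was preincubated with inhibitor at various concentrations in its corresponding buffer for 10 min at 37° C, after which its substrate was added. Absorbance or fluorescence was followed for 30 min, and reaction rates were expressed relative to an untreated control.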

KPC-2 = KPC-2 (Klebsiella pneumoniae, UniProt Q9F663); experiment: Inhibition of nitrocefin cleavage by purified KPC-2; type: biochemical; settings: nitrocefin reporter substrate, purified enzyme; read-out: Ki (KPC-2, NCF)
Chain of KPC-2 (Q9F663 25-293, looked up, species assumed): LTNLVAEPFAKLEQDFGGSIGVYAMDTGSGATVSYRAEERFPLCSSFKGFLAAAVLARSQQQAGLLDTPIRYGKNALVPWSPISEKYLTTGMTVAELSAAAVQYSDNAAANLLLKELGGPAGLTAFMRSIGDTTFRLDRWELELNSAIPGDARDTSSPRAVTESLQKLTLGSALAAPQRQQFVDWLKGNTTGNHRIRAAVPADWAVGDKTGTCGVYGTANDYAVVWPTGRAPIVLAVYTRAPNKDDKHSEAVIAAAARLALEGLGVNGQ
How it was run: (§4)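 10 min RT preincubation, enzyme with inhibitor series in reaction buffer. Substrate nitrocefin; kinetic read 490 nm, 10 sec intervals, 10 min total.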

PAM1154/KPC-2 = experiment: Biapenem potentiation in PAM1154/KPC-2 (MexAB-OprM lacking); type: cell-based, Pseudomonas aeruginosa
Protocol: Efflux of BLIs from Pseudomonas aeruginosa by the MexAB-OprM efflux pump was also evaluated. […] Due to expression of KPC-2 both strains became resistant to biapenem. […] Potency of BLIs to potentiate biapenem in these strains was determined. […] The ratio of MPC64 values for each BLI in PAM1032/KPC-2 (efflux proficient) and PAM1154/KPC-2 (efflux deficient) was determined to generate the Efflux Index (EI).

ec302 (TEM-10) [3] = experiment: Potentiation of tigemonam, strain ec302; type: cell-based
Trypsin = target: T5, Trypsin (Bos taurus, UniProt P00760); experiment: Serine protease inhibition: trypsin; type: biochemical, mammalian; settings: Table 8A, class symbols; read-out: IC50 Trypsin
T5 construct: purchased Calbiochem 6502
T5 sequence (P00760 24-246): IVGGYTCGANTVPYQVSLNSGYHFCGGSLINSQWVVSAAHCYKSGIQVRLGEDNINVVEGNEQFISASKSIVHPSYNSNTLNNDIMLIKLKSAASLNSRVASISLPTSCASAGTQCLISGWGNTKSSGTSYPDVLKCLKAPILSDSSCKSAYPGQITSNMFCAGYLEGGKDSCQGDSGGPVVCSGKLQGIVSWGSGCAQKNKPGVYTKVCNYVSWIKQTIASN
Protocol: as §1, §2

EC1010 (CMY-6) = experiment: Potentiation of aztreonam, strain EC1010; type: cell-based
CTX-M-14 = CTX-M-14 (Escherichia coli, UniProt Q9L5C7); experiment: Inhibition of nitrocefin cleavage by purified CTX-M-14; type: biochemical; settings: nitrocefin reporter substrate, purified enzyme; read-out: Ki (CTX-M-14, NCF)
Chain of CTX-M-14 (Q9L5C7 entry or part of it): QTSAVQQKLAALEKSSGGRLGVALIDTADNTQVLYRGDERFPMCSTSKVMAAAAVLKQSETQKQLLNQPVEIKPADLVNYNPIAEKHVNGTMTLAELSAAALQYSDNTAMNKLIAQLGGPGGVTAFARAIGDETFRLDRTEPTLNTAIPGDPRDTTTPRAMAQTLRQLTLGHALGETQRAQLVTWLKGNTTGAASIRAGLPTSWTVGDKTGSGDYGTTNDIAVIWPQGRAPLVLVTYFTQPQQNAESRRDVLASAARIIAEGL
How it was run: as §4

ECL1002 = experiment: Potentiation of aztreonam, strain ECL1002; type: cell-based; settings: minimum BLI concentration inhibiting growth with 4 μg/mL aztreonam
CMY-2 = CMY-2 (Klebsiella pneumoniae, UniProt Q48434); experiment: Inhibition of nitrocefin cleavage by purified CMY-2; type: biochemical; settings: nitrocefin reporter substrate, purified enzyme; read-out: Ki (CMY-2, NCF)
Chain of CMY-2 (Q48434 21-381, species assumed): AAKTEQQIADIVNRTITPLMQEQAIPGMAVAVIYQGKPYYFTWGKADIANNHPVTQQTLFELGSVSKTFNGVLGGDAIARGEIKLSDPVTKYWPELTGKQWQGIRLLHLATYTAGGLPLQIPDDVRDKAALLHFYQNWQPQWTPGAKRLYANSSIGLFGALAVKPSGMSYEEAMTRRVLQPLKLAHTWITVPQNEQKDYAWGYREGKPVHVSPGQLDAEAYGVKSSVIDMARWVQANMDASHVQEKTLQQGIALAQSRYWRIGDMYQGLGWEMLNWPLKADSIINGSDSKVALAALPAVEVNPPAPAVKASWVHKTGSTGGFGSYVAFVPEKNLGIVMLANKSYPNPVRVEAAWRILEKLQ
Protocol: as §3

OXA-48 = OXA-48 (Klebsiella pneumoniae, UniProt Q6XEC0); experiment: Inhibition of nitrocefin cleavage by purified OXA-48; type: biochemical; settings: nitrocefin reporter substrate, purified enzyme; read-out: Ki (OXA-48, NCF)
Chain of OXA-48 (Q6XEC0 23-265 limits assumed): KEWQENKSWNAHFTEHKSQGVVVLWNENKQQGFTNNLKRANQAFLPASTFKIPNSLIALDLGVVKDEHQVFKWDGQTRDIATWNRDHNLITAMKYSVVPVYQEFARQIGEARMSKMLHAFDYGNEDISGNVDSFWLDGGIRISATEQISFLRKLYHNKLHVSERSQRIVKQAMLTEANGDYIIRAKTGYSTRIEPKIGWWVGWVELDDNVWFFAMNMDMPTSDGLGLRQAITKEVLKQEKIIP
How it was run: as §4

HtrA2 = target: T6, HtrA2 (Homo sapiens, UniProt O43464); experiment: Serine protease inhibition: HtrA2; type: biochemical, mammalian; settings: Table 8B; read-out: IC50 HtrA2
T6 sequence (O43464 134-458): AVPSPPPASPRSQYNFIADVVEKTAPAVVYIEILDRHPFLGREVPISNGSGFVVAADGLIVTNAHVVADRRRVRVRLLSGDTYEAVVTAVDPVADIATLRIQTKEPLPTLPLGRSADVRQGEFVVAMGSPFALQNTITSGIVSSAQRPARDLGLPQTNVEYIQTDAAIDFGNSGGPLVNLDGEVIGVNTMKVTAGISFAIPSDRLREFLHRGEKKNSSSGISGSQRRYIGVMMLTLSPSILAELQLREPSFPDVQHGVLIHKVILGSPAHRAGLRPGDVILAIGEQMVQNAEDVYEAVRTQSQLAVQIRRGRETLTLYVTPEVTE
Protocol: as §1, §2

T1 sequence (Q86TI2 whole entry): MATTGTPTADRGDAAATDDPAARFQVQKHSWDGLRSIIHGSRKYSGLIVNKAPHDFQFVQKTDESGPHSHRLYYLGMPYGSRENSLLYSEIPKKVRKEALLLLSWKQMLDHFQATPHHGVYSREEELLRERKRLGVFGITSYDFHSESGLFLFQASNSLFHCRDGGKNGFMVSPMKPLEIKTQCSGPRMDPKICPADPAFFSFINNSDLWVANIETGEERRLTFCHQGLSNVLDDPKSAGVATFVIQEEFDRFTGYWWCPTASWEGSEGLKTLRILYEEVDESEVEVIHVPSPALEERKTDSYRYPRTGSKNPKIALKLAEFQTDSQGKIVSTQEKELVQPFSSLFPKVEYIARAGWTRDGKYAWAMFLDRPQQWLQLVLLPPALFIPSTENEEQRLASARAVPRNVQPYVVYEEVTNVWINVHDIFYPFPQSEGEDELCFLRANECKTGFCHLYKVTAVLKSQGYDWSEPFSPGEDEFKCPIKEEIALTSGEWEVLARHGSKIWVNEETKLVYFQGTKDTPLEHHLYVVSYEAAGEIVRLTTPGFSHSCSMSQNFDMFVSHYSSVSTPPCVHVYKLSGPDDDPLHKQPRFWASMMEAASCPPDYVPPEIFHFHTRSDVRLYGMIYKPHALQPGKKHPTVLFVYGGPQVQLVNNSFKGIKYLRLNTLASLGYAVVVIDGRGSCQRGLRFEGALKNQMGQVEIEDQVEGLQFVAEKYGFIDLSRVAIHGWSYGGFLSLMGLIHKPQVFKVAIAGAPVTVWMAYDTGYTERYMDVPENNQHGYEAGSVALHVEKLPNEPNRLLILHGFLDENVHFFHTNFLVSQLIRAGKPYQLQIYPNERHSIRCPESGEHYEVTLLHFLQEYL

Row | Compound | IC50 [1] [µM] | AZT MPC4 TEM-10 ec302 (ec302 (TEM-10) [2]) | IC50 (Elastase) [µM] | IC50 (CathepsinG) [µM] | AZT MPC4 CTX-M-15 KP1009 (KP1009 (CTX-M-15)) | Ki (P99) [µM] | IC50 (Thrombin) [µM] | Ki (KPC-2) [µM] | PAM1154/KPC-2 Biapenem MPC64 (PAM1154/KPC-2) | TIG MPC4 TEM-10 ec302 (ec302 (TEM-10) [3]) | IC50 (Trypsin) [µM] | AZT MPC4 CMY-6 EC1010 (EC1010 (CMY-6)) | Ki (CTX-M-14) [µM] | AZT MPC4 ECL1002 (ECL1002) | Ki (CMY-2) [µM] | Ki (OXA-48) [µM] | IC50 (HtrA2) [µM]
1 | O=C(CSc1nncs1)N[C@H]1Cc2cccc(C(=O)O)c2OB1O [Compound 7, (R)-3-(2-(1,3,4-thiadiazol-2-ylthio)acetamido)-2-hydroxy-3,4-dihydro-2H-benzo[e][1,2]oxaborinine-8-carboxylic acid] | > 500 | Y (key: X = MIC of less than 1 μg/mL; Y = MIC of 1 μg/mL to 10 μg/mL; Z = MIC of greater than 10 μg/mL) | > 800 | 15 to 500 | X (key: X = MIC of less than 1 μg/mL; Y = MIC of 1 μg/mL to 10 μg/mL; Z = MIC of greater than 10 μg/mL) | < 0.001 | > 800 | > 0.01 | X (key: X = Less than 10; Y = 10 to 40; Z Greater than 40) | Y (key: X = MIC of less than 1 μg/mL; Y = MIC of 1 μg/mL to 10 μg/mL; Z = MIC of greater than 10 μg/mL) | > 800 | X (key: X = MIC of less than 1 μg/mL; Y = MIC of 1 μg/mL to 10 μg/mL; Z = MIC of greater than 10 μg/mL) | < 0.001 | Y (Y = MIC of 1 μg/mL to 10 μg/mL) | < 0.001 | – | –
2 | CSC(=O)N[C@H]1Cc2cccc(C(=O)O)c2OB1O [Compound 11, (R)-2-hydroxy-3-(methylthiocarbonylamino)-3,4-dihydro-2H-benzo[e][1,2]oxaborinine-8-carboxylic acid] | > 500 | Y (key: X = MIC of less than 1 μg/mL; Y = MIC of 1 μg/mL to 10 μg/mL; Z = MIC of greater than 10 μg/mL) | > 800 | 15 to 500 | Y (key: X = MIC of less than 1 μg/mL; Y = MIC of 1 μg/mL to 10 μg/mL; Z = MIC of greater than 10 μg/mL) | < 0.001 | > 800 | > 0.01 | X (key: X = Less than 10; Y = 10 to 40; Z Greater than 40) | Z (key: X = MIC of less than 1 μg/mL; Y = MIC of 1 μg/mL to 10 μg/mL; Z = MIC of greater than 10 μg/mL) | > 800 | Y (key: X = MIC of less than 1 μg/mL; Y = MIC of 1 μg/mL to 10 μg/mL; Z = MIC of greater than 10 μg/mL) | – | Y (Y = MIC of 1 μg/mL to 10 μg/mL) | < 0.001 | < 0.001 | –
3 | O=C(Cc1cccs1)N[C@H]1Cc2cccc(C(=O)O)c2OB1O [CPD A, reference compound] | 15 to 500 | Y (key: X = MIC of less than 1 μg/mL; Y = MIC of 1 μg/mL to 10 μg/mL; Z = MIC of greater than 10 μg/mL) | > 800 | < 15 | – | – | < 300 | > 0.01 | X (key: X = Less than 10; Y = 10 to 40; Z Greater than 40) | – | > 800 | – | < 0.001 | Y (Y = MIC of 1 μg/mL to 10 μg/mL) | < 0.001 | < 0.001 | > 500

Reference: patent US9101638B2, “Boronic acid derivatives and therapeutic uses thereof” (Rempex Pharmaceuticals, Inc., priority 2013, dated 2015)
